From ChEMBL document CHEMBL6177968, “Development of sulfamoylbenzamide-based capsid assembly modulators for hepatitis B virus capsid assembly” (Eur J Med Chem, 2025)

Assays:
[1] = Selectivity index, ratio of CC50 for cytotoxicity in human HepG2-hNTCP cells assessed as reduction in cell viability to EC50 for antiviral activity against HBV in human HepG2-hNTCP cells assessed as reduction in viral replication; assay type: toxicity, cell-based; conditions: read-out: Ratio CC50/EC50
Cytochrome P450 1A2 = target: T1, Cytochrome P450 1A2 (Homo sapiens, UniProt P05177); experiment: Inhibition of CYP1A2 in human liver microsome; assay type: ADME, microsomes
T1 sequence (P05177 whole entry): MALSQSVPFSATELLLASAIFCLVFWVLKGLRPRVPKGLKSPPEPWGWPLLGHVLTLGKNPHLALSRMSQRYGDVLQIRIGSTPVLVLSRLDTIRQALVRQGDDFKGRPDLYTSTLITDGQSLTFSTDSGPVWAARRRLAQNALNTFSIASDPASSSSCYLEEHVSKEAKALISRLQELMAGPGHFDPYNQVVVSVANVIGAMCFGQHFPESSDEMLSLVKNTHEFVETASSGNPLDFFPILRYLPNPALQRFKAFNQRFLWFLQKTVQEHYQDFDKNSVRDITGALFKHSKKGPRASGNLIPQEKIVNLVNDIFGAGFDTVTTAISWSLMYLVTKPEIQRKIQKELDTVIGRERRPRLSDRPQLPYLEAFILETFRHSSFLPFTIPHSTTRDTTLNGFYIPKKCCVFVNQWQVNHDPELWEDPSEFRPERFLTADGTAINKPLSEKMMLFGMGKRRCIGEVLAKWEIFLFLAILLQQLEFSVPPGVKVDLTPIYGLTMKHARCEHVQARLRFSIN

[2] = AUC (0 to infinity) in male mouse at 5 mg/kg, iv; assay type: ADME, organism-based; conditions: in vivo
[3] = Oral bioavailability in male mouse at 20 mg/kg; assay type: ADME, organism-based; conditions: in vivo
[4] = AUClast in male mouse at 20 mg/kg, po; assay type: ADME, organism-based; conditions: in vivo
[5] = Selectivity index, ratio of CC50 for cytotoxicity in human HepaRG cells assessed as reduction in cell viability to EC50 for antiviral activity against HBV in human HepaRG cells assessed as reduction in viral replication; assay type: toxicity, cell-based; conditions: read-out: Ratio CC50/EC50
[6] = Plasma protein binding in human; assay type: ADME, cell-free; conditions: read-out: PPB (converted)
HepG2 = experiment: Effect on viral ssDNA level in human HepG2 cells expressing NTCP cells infected with HBV at 1 uM incubated for 6 days by Southern blot analysis; assay type: functional, cell-based; conditions: time 6.0 day
[7] = AUC (0 to infinity) in male mouse at 5 mg/kg, po; assay type: ADME, organism-based; conditions: in vivo

`Nc1cc(F)c(S(=O)(=O)NC2COC2)cc1C(=O)Nc1ccc(F)c(C(F)F)c1` showed a selectivity ratio [1] of 3160, an IC50 (Cytochrome P450 1A2) greater than 100 µM and an AUC(0-inf) [2] of 900 ng·h/mL. It also gave a bioavailability [3] of 5.89%, an AUC(0-t) [4] of 270 ng·h/mL and a selectivity ratio [5] greater than 100. For the same compound, the fraction unbound [6] was 0.128, the Activity (HepG2) was “No effect” and the AUC(0-inf) [7] was 570 ng·h/mL.
